Experimental data from patent US12180193B2, “Accelerating fibrosarcoma protein degrading compounds and associated methods of use” (Arvinas Operations, Inc., priority 2020, dated 2024).

How the values were obtained:
BRAF V600E = target: T1, BRAF V600E (Homo sapiens, UniProt P15056, V600E); assay: Cellular assay of target protein degradation, T-Rex 293 cells stably transfected with HA-BRAF_V600E (HA immunofluorescence, high content imaging); type: cell-based; conditions: T-Rex 293 HA-BRAF V600E; for DC50: half maximal degradation, read-out: BRaf V600E DC50; for Dmax: maximum degradation observed
T1 construct: expressed in transfected cells
Method in brief: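 24 h compound exposure, 1 μM–0.1 nM final, 0.1% DMSO, 37 °C; cells induced with 1 ng/mL doxycycline. PFA fix, Triton permeabilize, anti-HA overnight 4 °C, Hoechst/phalloidin counterstain. Output: DC50, Dmax as % control.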

BRAF G466V = target: T2, BRAF G466V (Homo sapiens, UniProt P15056, G466V); assay: Cellular assay of target protein degradation, T-Rex 293 cells stably transfected with HA-BRAF G466V (HA immunofluorescence, high content imaging); type: cell-based; conditions: T-Rex 293 HA-BRAF G466V; for DC50: half maximal degradation, read-out: BRaf G466V DC50; for Dmax: maximum degradation observed
T2 construct: expressed in transfected cells
Method in brief: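 24 h compound, 30 nM–3 pM final, 0.1% DMSO, 37° C; HA-BRAF G466V induced with 0.75 ng/mL doxycycline. PFA fix, Triton perm, anti-HA + Alexa fluor secondary, Hoechst/phalloidin counterstain; imaging. DC50, Dmax (% of control).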

T2 sequence (P15056 whole entry G466V): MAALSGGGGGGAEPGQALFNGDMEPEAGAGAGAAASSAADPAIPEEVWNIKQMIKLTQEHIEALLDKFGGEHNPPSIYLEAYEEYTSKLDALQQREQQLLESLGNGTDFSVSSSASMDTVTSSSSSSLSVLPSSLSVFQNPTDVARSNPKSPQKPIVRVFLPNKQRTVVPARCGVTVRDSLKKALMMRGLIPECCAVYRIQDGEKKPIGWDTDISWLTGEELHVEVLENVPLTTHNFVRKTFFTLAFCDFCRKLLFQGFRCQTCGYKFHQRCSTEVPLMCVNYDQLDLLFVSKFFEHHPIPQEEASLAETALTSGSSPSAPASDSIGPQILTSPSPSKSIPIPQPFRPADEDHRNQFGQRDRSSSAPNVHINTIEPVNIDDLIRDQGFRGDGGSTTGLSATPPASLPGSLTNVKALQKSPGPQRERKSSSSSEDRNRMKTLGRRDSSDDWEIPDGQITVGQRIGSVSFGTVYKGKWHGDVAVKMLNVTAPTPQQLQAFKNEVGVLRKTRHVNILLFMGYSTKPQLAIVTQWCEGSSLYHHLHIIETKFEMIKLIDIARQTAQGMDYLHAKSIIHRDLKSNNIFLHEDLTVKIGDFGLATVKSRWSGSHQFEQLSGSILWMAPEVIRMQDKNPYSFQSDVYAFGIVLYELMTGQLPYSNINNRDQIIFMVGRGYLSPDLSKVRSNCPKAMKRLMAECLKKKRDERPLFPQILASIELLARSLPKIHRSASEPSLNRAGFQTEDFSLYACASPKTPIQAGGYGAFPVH
T1 sequence (P15056 whole entry V600E): as the sequence (P15056 whole entry G466V) above, with V466G, V600E counted along it

Row | Structure (SMILES) | DC50 (BRAF V600E) | Dmax (BRAF V600E) | DC50 (BRAF G466V) | Dmax (BRAF G466V)
1 | O=C1CC[C@H](NC(=O)c2ccc(N3CCC(CN4CC5(C4)CN(c4ccc(-c6cnc7[nH]cc(C(=O)c8c(F)ccc(NS(=O)(=O)N9CC[C@@H](F)C9)c8F)c7c6)cc4)C5)CC3)cn2)C(=O)N1 [Compound 353, 5-(4-{[6-(4-{3-[2,6-difluoro-3-({[(3R)-3-fluoropyrrolidin-1-yl]sulfonyl}amino)benzoyl]-1H-pyrrolo[2,3-b]pyridin-5-yl}phenyl)-2,6-diazaspiro[3.3]heptan-2-yl]methyl}piperidin-1-yl)-N-[(3S)-2,6-dioxopiperidin-3-yl]pyridine-2-carboxamide] | 5 to 50 nM | 35 to 70% | 1 to 10 nM | 35 to 70%
2 | O=C1CC[C@H](N2Cc3cc([C@H](O)CCN4CCC(c5ccc(-c6cnc7[nH]cc(C(=O)c8c(F)ccc(NS(=O)(=O)N9CC[C@@H](F)C9)c8F)c7c6)cc5)CC4)ccc3C2=O)C(=O)N1 [Compound 67, (3R)—N-[3-[5-(4-[1-[(3R)-3-[2-[(3S)-2,6-dioxopiperidin-3-yl]-1-oxo-3H-isoindol-5-yl]-3-hydroxypropyl]piperidin-4-yl]phenyl)-1H-pyrrolo[2,3-b]pyridine-3-carbonyl]-2,4-difluorophenyl]-3-fluoropyrrolidine-1-sulfonamide] | 5 to 50 nM | 35 to 70% | 1 to 10 nM | > 70%
3 | O=C1CC[C@H](NC(=O)c2ccc(C3CCN(CC4CCN(c5ccc(-c6cnc7[nH]cc(C(=O)c8c(F)ccc(NS(=O)(=O)N9CC[C@@H](F)C9)c8F)c7c6)cc5)CC4)CC3)cc2F)C(=O)N1 [Compound 33, 4-(1-{[1-(4-{3-[2,6-difluoro-3-({[(3R)-3-fluoropyrrolidin-1-yl]sulfonyl}amino)benzoyl]-1H-pyrrolo[2,3-b]pyridin-5-yl}phenyl)piperidin-4-yl]methyl}piperidin-4-yl)-N-[(3S)-2,6-dioxopiperidin-3-yl]-2-fluorobenzamide] | 5 to 50 nM | > 70% | 1 to 10 nM | 35 to 70%
4 | O=C1CCC(N2Cc3cc(N4CCN(C[C@@H](O)Cc5ccc(-c6cnc7[nH]cc(C(=O)c8c(F)ccc(NS(=O)(=O)N9CC[C@@H](F)C9)c8F)c7c6)cc5)CC4)ccc3C2=O)C(=O)N1 (stereo partly drawn) [Compound 98, (3R)-N-[3-(5-{4-[(2S)-3-{4-[2-(2,6-dioxopiperidin-3-yl)-1-oxo-2,3-dihydro-1H-isoindol-5-yl]piperazin-1-yl}-2-hydroxypropyl]phenyl}-1H-pyrrolo[2,3-b]pyridine-3-carbonyl)-2,4-difluorophenyl]-3-fluoropyrrolidine-1-sulfonamide] | 5 to 50 nM | 35 to 70% | 1 to 10 nM | > 70%
5 | COc1cc(N2CC3(CN(CCc4ccc(-c5cnc6[nH]cc(C(=O)c7c(F)ccc(NS(=O)(=O)N8CC[C@@H](F)C8)c7F)c6c5)cc4)C3)C2)cc2c1C(=O)N(C1CCC(=O)NC1=O)C2 (stereo partly drawn) [Compound 21, (3R)-N-(3-{5-[4-(2-{6-[2-(2,6-dioxopiperidin-3-yl)-7-methoxy-1-oxo-2,3-dihydro-1H-isoindol-5-yl]-2,6-diazaspiro[3.3]heptan-2-yl}ethyl)phenyl]-1H-pyrrolo[2,3-b]pyridine-3-carbonyl}-2,4-difluorophenyl)-3-fluoropyrrolidine-1-sulfonamide] | 5 to 50 nM | 35 to 70% | 1 to 10 nM | 35 to 70%
6 | O=C1CCC(NC(=O)c2ccc(N3CC4(CN(CCc5ccc(-c6cnc7[nH]cc(C(=O)c8c(F)ccc(NS(=O)(=O)N9CC[C@@H](F)C9)c8F)c7c6)cc5)C4)C3)cc2F)C(=O)N1 (stereo partly drawn) [Compound 374, 4-{6-[2-(4-{3-[2,6-difluoro-3-({[(3R)-3-fluoropyrrolidin-1-yl]sulfonyl}amino)benzoyl]-1H-pyrrolo[2,3-b]pyridin-5-yl}phenyl)ethyl]-2,6-diazaspiro[3.3]heptan-2-yl}-N-(2,6-dioxopiperidin-3-yl)-2-fluorobenzamide] | 5 to 50 nM | 35 to 70% | < 1 nM | 35 to 70%
7 | C[C@@H]1C[C@H](CN2CCC(c3ccc4c(c3)CN([C@H]3CCC(=O)NC3=O)C4=O)CC2)CCN1c1ccc(-c2cnc3[nH]cc(C(=O)c4c(F)ccc(NS(=O)(=O)N5CC[C@@H](F)C5)c4F)c3c2)cc1 [Compound 241, (3R)-N-[3-(5-{4-[(2R,4R)-4-[(4-{2-[(3S)-2,6-dioxopiperidin-3-yl]-1-oxo-2,3-dihydro-1H-isoindol-5-yl}piperidin-1-yl)methyl]-2-methylpiperidin-1-yl]phenyl}-1H-pyrrolo[2,3-b]pyridine-3-carbonyl)-2,4-difluorophenyl]-3-fluoropyrrolidine-1-sulfonamide] | 5 to 50 nM | 35 to 70% | 1 to 10 nM | > 70%
8 | O=C1CC[C@H](NC(=O)N2CCCc3c(N4CCN(CC5CCN(c6ccc(-c7cnc8[nH]cc(C(=O)c9c(F)ccc(NS(=O)(=O)N%10CC[C@@H](F)C%10)c9F)c8c7)cc6)CC5)CC4)ccnc32)C(=O)N1 [Compound 369, 5-(4-{[1-(4-{3-[2,6-difluoro-3-({[(3R)-3-fluoropyrrolidin-1-yl]sulfonyl}amino)benzoyl]-1H-pyrrolo[2,3-b]pyridin-5-yl}phenyl)piperidin-4-yl]methyl}piperazin-1-yl)-N-[(3S)-2,6-dioxopiperidin-3-yl]-1,2,3,4-tetrahydro-1,8-naphthyridine-1-carboxamide] | 5 to 50 nM | 35 to 70% | 1 to 10 nM | > 70%
9 | O=C1CC[C@H](N2Cc3cc(CC[C@H](O)CN4CC5(C4)CN(c4ccc(-c6cnc7[nH]cc(C(=O)c8c(F)ccc(NS(=O)(=O)N9CC[C@@H](F)C9)c8F)c7c6)cc4)C5)ccc3C2=O)C(=O)N1 [Compound 172, (3R)-N-{3-[5-(4-{6-[(2S)-4-{2-[(3S)-2,6-dioxopiperidin-3-yl]-1-oxo-2,3-dihydro-1H-isoindol-5-yl}-2-hydroxybutyl]-2,6-diazaspiro[3.3]heptan-2-yl}phenyl)-1H-pyrrolo[2,3-b]pyridine-3-carbonyl]-2,4-difluorophenyl}-3-fluoropyrrolidine-1-sulfonamide] | 5 to 50 nM | 35 to 70% | 1 to 10 nM | > 70%
10 | COc1cc(-c2cnc3[nH]cc(C(=O)c4c(F)ccc(NS(=O)(=O)N5CC[C@@H](F)C5)c4F)c3c2)ccc1N1CCC(CN2CCC(c3ccc4c(c3)CN([C@H]3CCC(=O)NC3=O)C4=O)CC2)CC1 [Compound 256, (3R)-N-{3-[5-(4-{4-[(4-{2-[(3S)-2,6-dioxopiperidin-3-yl]-1-oxo-2,3-dihydro-1H-isoindol-5-yl}piperidin-1-yl)methyl]piperidin-1-yl}-3-methoxyphenyl)-1H-pyrrolo[2,3-b]pyridine-3-carbonyl]-2,4-difluorophenyl}-3-fluoropyrrolidine-1-sulfonamide] | 5 to 50 nM | 35 to 70% | < 1 nM | > 70%
11 | O=C1CC[C@H](N2Cc3cc([C@@H](O)CCN4CC5(C4)CN(c4ccc(-c6cnc7[nH]cc(C(=O)c8c(F)ccc(NS(=O)(=O)N9CC[C@@H](F)C9)c8F)c7c6)cc4)C5)ccc3C2=O)C(=O)N1 [Compound 106, (3R)-N-{3-[5-(4-{6-[(3S)-3-{2-[(3S)-2,6-dioxopiperidin-3-yl]-1-oxo-2,3-dihydro-1H-isoindol-5-yl}-3-hydroxypropyl]-2,6-diazaspiro[3.3]heptan-2-yl}phenyl)-1H-pyrrolo[2,3-b]pyridine-3-carbonyl]-2,4-difluorophenyl}-3-fluoropyrrolidine-1-sulfonamide] | 5 to 50 nM | 35 to 70% | 1 to 10 nM | > 70%
12 | COc1cc(N2CCC(CN3CCN(c4ccc(-c5cnc6[nH]cc(C(=O)c7c(F)ccc(NS(=O)(=O)N8CC[C@@H](F)C8)c7F)c6c5)cc4)CC3)CC2)ccc1C(=O)NC1CCC(=O)NC1=O (stereo partly drawn) [Compound 358, 4-(4-{[4-(4-{3-[2,6-difluoro-3-({[(3R)-3-fluoropyrrolidin-1-yl]sulfonyl}amino)benzoyl]-1H-pyrrolo[2,3-b]pyridin-5-yl}phenyl)piperazin-1-yl]methyl}piperidin-1-yl)-N-(2,6-dioxopiperidin-3-yl)-2-methoxybenzamide] | 5 to 50 nM | 35 to 70% | 1 to 10 nM | > 70%
13 | CCCS(=O)(=O)Nc1ccc(F)c(C(=O)c2c[nH]c3ncc(-c4ccc(N5CCC(CN6CCC(c7ccc8c(c7)CN(C7CCC(=O)NC7=O)C8=O)CC6)CC5)cc4)cc23)c1F (centres unmarked) [Compound 236, N-[3-(5-{4-[4-({4-[2-(2,6-dioxopiperidin-3-yl)-1-oxo-2,3-dihydro-1H-isoindol-5-yl]piperidin-1-yl}methyl)piperidin-1-yl]phenyl}-1H-pyrrolo[2,3-b]pyridine-3-carbonyl)-2,4-difluorophenyl]propane-1-sulfonamide] | 5 to 50 nM | 35 to 70% | < 1 nM | > 70%
14 | O=C1CCC(c2ccc(N3CC4(CN(CC5CCN(c6ccc(-c7cnc8[nH]cc(C(=O)c9c(F)ccc(NS(=O)(=O)N%10CC[C@@H](F)C%10)c9F)c8c7)cc6)CC5)C4)C3)cc2)C(=O)N1 (stereo partly drawn) [Compound 368, (3R)-N-[3-(5-{4-[4-({6-[4-(2,6-dioxopiperidin-3-yl)phenyl]-2,6-diazaspiro[3.3]heptan-2-yl}methyl)piperidin-1-yl]phenyl}-1H-pyrrolo[2,3-b]pyridine-3-carbonyl)-2,4-difluorophenyl]-3-fluoropyrrolidine-1-sulfonamide] | 5 to 50 nM | 35 to 70% | 1 to 10 nM | 35 to 70%
